Test results: patent US9474790B2, “Stable, protracted GLP-1/glucagon receptor co-agonists for medical use” (Novo Nordisk A/S, priority 2013, dated 2016)
Numbered stars: 1 amine (or outer) side, 2 acyl side, 3 side chain; on linkers, the order of the positions; unused ones are H or OH. Square brackets hold non-standard residues; d marks the D form. Side chains are listed from the residue outwards. Peptide text beside a SMILES is read from it. * marks the point of attachment. C18 diacid = O=C(O)CCCCCCCCCCCCCCCCC(=O)*; γGlu = O=C(O)[C@H](CCC(=O)[*:2])N[*:1]; AEEA = NCCOCCOCC(=O)O; Aib = CC(C)(N)C(=O)O

Columns and labels:
[1] = target: T1, human GLP-1 receptor (Homo sapiens, UniProt P43220); test: GLP-1 receptor potency, CRE luciferase reporter gene assay in BHK cells; assay type: cell-based; settings: BHK cells expressing human GLP-1 receptor, read-out: EC50 GLP-1R
T1 construct: expressed in transfected cells; host or cells: BHK cells (parent BHKTS13), clone FCW467-12A/KZ10-1, with CRE luciferase
Description: The purpose of this example was to test the potency, of the glucagon derivatives of the invention, in vitro. The in vitro potency is the measure of human GLP-1 receptor or glucagon receptor activation, respectively, in a whole cell assay.
In vitro potency was determined by measuring the response of human GLP-1 or glucagon receptor, respectively, in a reporter gene assay. The assay was performed in a stably transfected BHK cell line that expresses either the human GLP-1 receptor or the human glucagon receptor and contains the DNA for the cAMP response element (CRE) coupled to a promoter and the gene for firefly luciferase (CRE luciferase). […] When assay incubation was completed, the luciferase substrate (luciferin) was added and the enzyme converted luciferin to oxyluciferin and produces bioluminescence. The luminescence was measured as the readout for the assay.
The cells used in this assay (clone FCW467-12A/KZ10-1) were BHK cells with BHKTS13 as a parent cell line. The cells were derived from a clone (FCW467-12A) that expresses the human GLP-1 receptor and were established by further transfection with
CRE luciferase to obtain the current clone.
The cells were cultured at 5% CO2 in DMEM medium with 10% FBS, 1×GlutaMAX, 1 mg/ml G418, 240 nM MTX (methotrexate) and 1% pen/strep (penicillin/streptomycin). They were aliquoted and stored in liquid nitrogen. Before each assay, an aliquot was taken up and washed three times in PBS before being suspended at the desired concentration in assay medium. For 96-well plates the suspension was made to give a final concentration of 5×10EE3 cells/well.
The following chemicals were used in the assay: Pluronic F-68 (10%) (Gibco 2404), ovalbumin (Sigma A5503), DMEM w/o phenol red (Gibco 11880-028), 1 M Hepes (Gibco 15630), Glutamax 100× (Gibco 35050) and steadylite plus (PerkinElmer 6016757).
Assay Medium consisted of DMEM w/o phenol red, 10 mM Hepes, lx GlutaMAX, 2% Ovalbumin and 0.2% Pluronic F-68.
Cell stocks were thawed in a 37° C. water bath. Cells were washed three times in PBS. The cells were counted and adjusted to 5×10EE3 cells/50 μl (1×10EE5 cells/ml) in Assay Medium. A 50 μl aliquot of cells was transferred to each well in the assay plate.
Stocks of the test compounds and reference compounds were diluted to a concentration of […] in Assay Medium. Compounds were diluted 10-fold to give the following concentrations: 2×10EE-6 M, 2×10EE-7 M, 2×10EE-8 M; 2×10EE-9 M, 2×10EE-10 M, 2×10EE-11 M, 2×10EE-12 M and 2×10EE-13 M. For each compound a blank assay medium control was also included.
A 50 μl aliquot of compound or blank was transferred from the dilution plate to the assay plate. Compounds were tested at the following final concentrations: 1×10EE-6 M, 1×10EE-7 M, 1×10EE-8 M; 1×10EE-9 M, 1×10EE-10 M, 1×10EE-11 M and 1×10EE-12 M and 1×10EE-13 M.
The assay plate was incubated for 3 h in a 5% CO2 incubator at 37° C. The assay plate was removed from the incubator and allowed to stand at room temperature for 15 min. A 100 μl aliquot of steadylite plus reagent was added to each well of the assay plate (reagent is light sensitive). Each assay plate was covered with aluminum foil to protect it from light and shaken for 30 min at room temperature. Each assay plate was read in a Perkin Elmer TopCount NXT instrument.
The data from the TopCount instrument was transferred to GraphPad Prism software. The software performed a non-linear regression (log(agonist) vs response-Variable slope (four parameter)). EC50 values were calculated by the software and reported in pM.

[2] = target: T1, human GLP-1 receptor; test: GLP-1 receptor binding, 125I-GLP-1 displacement SPA on isolated membranes; settings: displacement of 125I-GLP-1 from membranes; read-out: IC50 GLP-1R
Description: The purpose of this assay was to test the in vitro receptor binding activity of the glucagon derivatives of the invention. The receptor binding is a measure of affinity of a compound for the human GLP-1 receptor.
The receptor binding of each compound to the human GLP-1 receptor was measured in a displacement binding assay. In this type of assay a labelled ligand (in this case 125I-GLP-1) is bound to the receptor. Each derivative was added in a series of concentrations to isolated membranes containing the human GLP-1 receptor and displacement of the labelled ligand was monitored. The receptor binding was reported as the concentration at which half of the labelled ligand was displaced from the receptor, the IC50 value.
In order to test the binding of the derivatives to albumin, the assay may be performed in a very low concentration of serum albumin (max. 0.001% final assay concentration) as well as in the presence of a higher concentration of serum albumin (2.0% final assay concentration). An increase of the IC50 value, in the presence of serum albumin indicates an affinity to serum albumin and represents a method to predict a protracted pharmacokinetic profile of the test substance in animal models.
The following chemicals were used in the assay: DMEM w/o phenol red (Gibco 11880-028), Pen/strep (Invitrogen 15140-122), G418 (Invitrogen 10131-027), 1 M Hepes (Gibco 15630), EDTA (Invitrogen 15575-038), PBS (Invitrogen 14190-094), fetal calf serum (Invitrogen 16140-071), EGTA, MgCl2 (Merck 1.05832.1000), Tween 20 (Amresco 0850C335), SPA particles (wheat germ agglutinin (WGA) SPA beads, Perkin Elmer RPNQ0001), [125I]-GLP-1]-(7-36)NH2 (produced in-house), OptiPlate™-96 (Perkin Elmer).
Buffer 1 consisted of 20 mM Na-HEPES plus 10 mM EDTA and pH was adjusted to 7.4.
Buffer 2 consisted of 20 mM Na-HEPES plus 0.1 mM EDTA and pH was adjusted to 7.4.
Assay buffer consisted of 50 mM HEPES supplemented with 5 mM EGTA, 5 mM MgCl2, 0.005% Tween 20 and pH was adjusted to 7.4.
The cells used in this assay (clone FCW467-12A) were BHK cells with BHKTS13 as a parent cell line. The cells express the human GLP-1 receptor.
The cells were grown at 5% CO2 in DMEM, 10% fetal calf serum, 1% Pen/Strep (Penicillin/Streptomycin) and 1.0 mg/ml of the selection marker G418. To make a membrane preparation the cells were grown to approximately 80% confluence. The cells were washed twice in phosphate-buffered saline and harvested. The cells were pelleted using a brief centrifugation and the cell pellet was kept on ice. The cell pellet was homogenised with ULTRA-THURRAX dispersing instrument for 20-30 sec in a suitable amount of buffer 1 (e.g. 10 ml). The homogenate was centrifuged for 15 min. The pellet was re-suspended (homogenised) in 10 ml buffer 2 and centrifuged. This step was repeated once more. The resulting pellet was re-suspended in buffer 2 and the protein concentration was determined. The membranes were aliquoted and stored at minus 80° C.
1. For the receptor binding assay, 50 μl of the assay buffer was added to each well of an assay plate.
2. Test compounds were serially diluted to give the following concentrations: 8×10EE-7 M, 8×10EE-8 M, 8×10EE-9 M, 8×10EE-10 M, 8×10EE-11 M, 8×10EE-12 M and 8×10EE-13 M. Twenty-five μl were added to appropriate wells in the assay plate.
3. Cell membrane aliquots were thawed and diluted to their working concentration. Fifty μl were added to each well in the assay plate.
4. WGA SPA beads were suspended in assay buffer at 20 mg/ml. The suspension was diluted to 10 mg/ml in assay buffer just prior to addition to the assay plate. Fifty μl were added to each well in the assay plate.
5. The incubation was started by adding 25 μl of 480 pM solution of [125I]-GLP-1]-(7-36)NH2 to each well of the assay plate. A 25 μl aliquot was reserved for measuring total counts/well.
6. The assay plate was incubated for 2 h at 30° C.
7. The assay plate was centrifuged for 10 min.
8. The assay plate was read in a Perkin Elmer TopCount NXT instrument. […]

[3] = Thioflavin T (ThT) fibrillation assay for physical stability; assay type: physicochemical; settings: 250 μM in 10 mM HEPES buffer, pH 7.5, 37° C., shaking 960 rpm
In short: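 Fibrillation was followed by ThT (1 μM) fluorescence every 20 min, 444/485 nm, for 250 μM peptide in 10 mM HEPES pH 7.5 shaken at 960 rpm, 37° C. Lag time (t0−2τ) and apparent rate constant (1/τ) come from a sigmoidal fit. Recovery is % of initial concentration remaining soluble after centrifugation and filtration (RP-HPLC).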

T1 sequence (P43220 24-463): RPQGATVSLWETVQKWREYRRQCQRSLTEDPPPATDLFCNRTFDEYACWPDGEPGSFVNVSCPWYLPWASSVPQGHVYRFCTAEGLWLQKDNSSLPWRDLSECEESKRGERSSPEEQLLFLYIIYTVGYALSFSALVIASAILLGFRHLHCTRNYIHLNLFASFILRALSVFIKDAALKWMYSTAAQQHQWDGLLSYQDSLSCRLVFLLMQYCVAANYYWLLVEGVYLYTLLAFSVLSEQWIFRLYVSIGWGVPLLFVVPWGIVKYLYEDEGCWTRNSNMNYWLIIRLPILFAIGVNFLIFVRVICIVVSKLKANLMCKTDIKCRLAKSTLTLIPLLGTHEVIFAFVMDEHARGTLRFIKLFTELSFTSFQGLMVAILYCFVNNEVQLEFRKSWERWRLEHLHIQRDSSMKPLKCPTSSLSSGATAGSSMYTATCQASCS

| EC50 [1] | IC50 [2] | THT assay Lag time (Ex. 76) [3] | SMILES |
| --- | --- | --- | --- |
| 0.005 nM | 1.5 nM | – | CC(C)C[C@H](NC(=O)[C@H](CC(=O)O)NC(=O)[C@H](CC(C)C)NC(=O)[C@H](Cc1ccc(O)cc1)NC(=O)[C@H](CCCNC(=N)N)NC(=O)[C@H](CO)NC(=O)[C@@H](NC(=O)[C@H](CC(=O)O)NC(=O)[C@H](CO)NC(=O)[C@@H](NC(=O)[C@H](Cc1ccccc1)NC(=O)[C@@H](NC(=O)CNC(=O)[C@H](CCC(N)=O)NC(=O)C(C)(C)NC(=O)[C@@H](N)Cc1c[nH]cn1)[C@@H](C)O)[C@@H](C)O)C(C)C)C(=O)N[C@@H](CCCNC(=N)N)C(=O)N[C@@H](CCCNC(=N)N)C(=O)N[C@@H](C)C(=O)N[C@@H](CCC(N)=O)C(=O)N[C@@H](CC(=O)O)C(=O)N[C@@H](Cc1ccccc1)C(=O)N[C@H](C(=O)N[C@@H](CCC(N)=O)C(=O)N[C@@H](Cc1c[nH]c2ccccc12)C(=O)N[C@@H](CC(C)C)C(=O)N[C@@H](CC(C)C)C(=O)N[C@@H](CCCCNC(=O)COCCOCCNC(=O)COCCOCCNC(=O)CC[C@H](NC(=O)CC[C@H](NC(=O)CC[C@H](NC(=O)CCCCCCCCCCCCCCCCC(=O)O)C(=O)O)C(=O)O)C(=O)O)C(=O)N[C@H](C(N)=O)[C@@H](C)O)C(C)C [Example 73, N^ε28-[2-[2-[2-[[2-[2-[2-[[(4S)-4-carboxy-4-[[(4S)-4-carboxy-4-[[(4S)-4-carboxy-4-(17-carboxyheptadecanoylamino)butanoyl]amino]butanoyl]amino]butanoyl]amino]ethoxy]ethoxy]acetyl]amino]ethoxy]ethoxy]acetyl]-[Aib2,Val10,Arg12,Leu16,Leu27,Lys28]-Glucagon amide] (H-H[Aib]QGTFTSDVSRYLDLRRAQDFVQWLLK([AEEA-AEEA-γGlu-γGlu-γGlu-C18 diacid])T-NH2) |
| 0.011 nM | – | 45 h | CC(C)C[C@H](NC(=O)[C@H](CC(=O)O)NC(=O)[C@H](CC(C)C)NC(=O)[C@H](Cc1ccc(O)cc1)NC(=O)[C@H](CCCCN)NC(=O)[C@H](CO)NC(=O)[C@H](CC(C)C)NC(=O)[C@H](CC(=O)O)NC(=O)[C@H](CO)NC(=O)[C@@H](NC(=O)[C@H](Cc1ccccc1)NC(=O)[C@@H](NC(=O)CNC(=O)[C@H](CCC(N)=O)NC(=O)C(C)(C)NC(=O)[C@@H](N)Cc1c[nH]cn1)[C@@H](C)O)[C@@H](C)O)C(=O)N[C@@H](CCCNC(=N)N)C(=O)N[C@@H](CCCNC(=N)N)C(=O)N[C@@H](C)C(=O)N[C@@H](CCC(N)=O)C(=O)N[C@@H](CC(=O)O)C(=O)N[C@@H](Cc1ccccc1)C(=O)N[C@H](C(=O)N[C@@H](CCC(N)=O)C(=O)N[C@@H](Cc1c[nH]c2ccccc12)C(=O)N[C@@H](CC(C)C)C(=O)N[C@@H](CC(C)C)C(=O)N[C@@H](CCCCNC(=O)CC[C@H](NC(=O)CC[C@H](NC(=O)[C@H](CO)NC(=O)[C@H](CCC(=O)O)NC(=O)[C@H](CO)NC(=O)CC[C@H](NC(=O)CC[C@H](NC(=O)CCCCCCCCCCCCCCCCC(=O)O)C(=O)O)C(=O)O)C(=O)O)C(=O)O)C(=O)N[C@H](C(N)=O)[C@@H](C)O)C(C)C [Example 53, N^ε28-[(4S)-4-carboxy-4-[[(4S)-4-carboxy-4-[[(2S)-2-[[(2S)-4-carboxy-2-[[(2S)-2-[[(4S)-4-carboxy-4-[[(4S)-4-carboxy-4-(17-carboxyheptadecanoylamino)butanoyl]amino]butanoyl]amino]-3-hydroxypropanoyl]amino]butanoyl]amino]-3-hydroxypropanoyl]amino]butanoyl]amino]butanoyl]-[Aib2,Leu10,Leu16,Leu27,Lys28]-Glucagon amide] (H-H[Aib]QGTFTSDLSKYLDLRRAQDFVQWLLK([γGlu-γGlu-Ser-Glu-Ser-γGlu-γGlu-C18 diacid])T-NH2; N-terminus assumed) |
